Assay results taken from patent US20260215425A1, “NITRIFICATION INHIBITORS” (The University of Melbourne, priority 2022, published 2026).

Test system: soils B-E
Assay: soil incubation, N2O production in soils B-E
Protocol: Soil incubations were performed in three replicates. Each sample consisted of 6 g of sieved soil (2 mm). The soil was air-dried after collection and pre-incubated prior to the experiment for seven days at 50% water holding capacity (WHC). The soil was transferred to a gas chromatography vial (22 mL volume, clear glass, Macherey-Nagel, Germany) and compacted densely to allow 5.5-6.2 cm headspace. The soil in the vials was incubated for a total of 21 days at a constant temperature of 21° C. with an open lid to ensure gas circulation. The control incubations contained ‘untreated’ soil (deionized H2O only) and ‘fertiliser only’ soil ((NH4)2SO4; 50 mg kg^−1 soil) and accompanied each measurement. (NH4)2SO4 was applied as an aqueous solution ([…]) and introduced on the soil surface to mimic field conditions. Three inhibitor solutions were prepared from DMP and 4-MPT at concentrations of 0.5 mol %, 2.5 mol % and 5 mol % of applied fertiliser-N and applied on the soil surface. The soils reached 60% WHC after the treatments had been applied and were kept at that moisture level by periodically adding deionized water to compensate for evaporation losses. At the day of measurement (day 1, 3, 5, 7, 14 and 21 after fertilization) the vials were closed gas-tight with a rubber septum and aluminium lid and opened again after each measurement. The N2O emission was analysed using a gas chromatograph equipped with an electron capture detector and flame ionization detector (GC-ECD/FID; Clarus 580, Perkin Elmer). A linear regression slope was used to calculate N2O—N production rates, F, according to eqn. 5:
where ΔC/Δt represents the change of the N2O concentration over the time interval t in ppbv, V represents the headspace volume in L, M represents the molar mass of N in N2O, m represents the amount of soil in g dry weight, Vm represents the molar volume of ideal gases (22.414 L mol^−1) at 0° C. and 101.325 kPa, corrected for the gas sampler using T0 (273.15 K) and Ta (air temperature in K).

## C#CCn1cc(C)nn1 [Compound 4-MPT, 4-Methyl-1-(prop-2-yn-1yl)-1H-1,2,3-triazole]
Soil B, 0.5 mol %, Day 1
  N2O production: 0.058 ± 0.004 μg g^−1 soil h^−1
Soil B, 0.5 mol %, Day 3
  N2O production: 0.009 ± 0.009 μg g^−1 soil h^−1
Soil B, 0.5 mol %, Day 5
  N2O production: 0.000 ± 0.000 μg g^−1 soil h^−1
Soil B, 0.5 mol %, Day 7
  N2O production: −0.013 ± 0.013 μg g^−1 soil h^−1
Soil B, 0.5 mol %, Day 14
  N2O production: 0.008 ± 0.008 μg g^−1 soil h^−1
Soil B, 0.5 mol %, Day 21
  N2O production: 0.011 ± 0.011 μg g^−1 soil h^−1
Soil B, 2.5 mol %, Day 1
  N2O production: 0.007 ± 0.007 μg g^−1 soil h^−1
Soil B, 2.5 mol %, Day 3
  N2O production: 0.000 ± 0.000 μg g^−1 soil h^−1
Soil B, 2.5 mol %, Day 5
  N2O production: −0.007 ± 0.007 μg g^−1 soil h^−1
Soil B, 2.5 mol %, Day 7
  N2O production: −0.019 ± 0.019 μg g^−1 soil h^−1
Soil B, 2.5 mol %, Day 14
  N2O production: 0.000 ± 0.000 μg g^−1 soil h^−1
Soil B, 2.5 mol %, Day 21
  N2O production: 0.000 ± 0.000 μg g^−1 soil h^−1
Soil B, 5 mol %, Day 1
  N2O production: 0.000 ± 0.000 μg g^−1 soil h^−1
Soil B, 5 mol %, Day 3
  N2O production: 0.000 ± 0.000 μg g^−1 soil h^−1
Soil B, 5 mol %, Day 5
  N2O production: 0.000 ± 0.000 μg g^−1 soil h^−1
Soil B, 5 mol %, Day 7
  N2O production: −0.048 ± 0.026 μg g^−1 soil h^−1
Soil B, 5 mol %, Day 14
  N2O production: 0.000 ± 0.000 μg g^−1 soil h^−1
Soil B, 5 mol %, Day 21
  N2O production: 0.000 ± 0.000 μg g^−1 soil h^−1
Soil C, 0.5 mol %, Day 1
  N2O production: 0.119 ± 0.011 μg g^−1 soil h^−1
Soil C, 0.5 mol %, Day 3
  N2O production: 0.062 ± 0.001 μg g^−1 soil h^−1
Soil C, 0.5 mol %, Day 5
  N2O production: 0.059 ± 0.007 μg g^−1 soil h^−1
Soil C, 0.5 mol %, Day 7
  N2O production: 0.054 ± 0.006 μg g^−1 soil h^−1
Soil C, 0.5 mol %, Day 14
  N2O production: 0.119 ± 0.010 μg g^−1 soil h^−1
Soil C, 0.5 mol %, Day 21
  N2O production: 0.107 ± 0.008 μg g^−1 soil h^−1
Soil C, 2.5 mol %, Day 1
  N2O production: 0.042 ± 0.04 μg g^−1 soil h^−1
Soil C, 2.5 mol %, Day 3
  N2O production: 0.000 ± 0.000 μg g^−1 soil h^−1
Soil C, 2.5 mol %, Day 5
  N2O production: 0.011 ± 0.011 μg g^−1 soil h^−1
Soil C, 2.5 mol %, Day 7
  N2O production: 0.031 ± 0.003 μg g^−1 soil h^−1
Soil C, 2.5 mol %, Day 14
  N2O production: 0.012 ± 0.008 μg g^−1 soil h^−1
Soil C, 2.5 mol %, Day 21
  N2O production: 0.019 ± 0.010 μg g^−1 soil h^−1
Soil C, 5 mol %, Day 1
  N2O production: 0.017 ± 0.017 μg g^−1 soil h^−1
Soil C, 5 mol %, Day 3
  N2O production: 0.000 ± 0.000 μg g^−1 soil h^−1
Soil C, 5 mol %, Day 5
  N2O production: 0.000 ± 0.000 μg g^−1 soil h^−1
Soil C, 5 mol %, Day 7
  N2O production: 0.024 ± 0.013 μg g^−1 soil h^−1
Soil C, 5 mol %, Day 14
  N2O production: 0.023 ± 0.007 μg g^−1 soil h^−1
Soil C, 5 mol %, Day 21
  N2O production: 0.000 ± 0.000 μg g^−1 soil h^−1
Soil D, 0.5 mol %, Day 1
  N2O production: 0.029 ± 0.029 μg g^−1 soil h^−1
Soil D, 0.5 mol %, Day 3
  N2O production: 0.058 ± 0.009 μg g^−1 soil h^−1
Soil D, 0.5 mol %, Day 5
  N2O production: 0.004 ± 0.004 μg g^−1 soil h^−1
Soil D, 0.5 mol %, Day 7
  N2O production: 0.037 ± 0.021 μg g^−1 soil h^−1
Soil D, 0.5 mol %, Day 14
  N2O production: 0.037 ± 0.005 μg g^−1 soil h^−1
Soil D, 0.5 mol %, Day 21
  N2O production: 0.045 ± 0.014 μg g^−1 soil h^−1
Soil D, 2.5 mol %, Day 1
  N2O production: 0.015 ± 0.010 μg g^−1 soil h^−1
Soil D, 2.5 mol %, Day 3
  N2O production: 0.020 ± 0.010 μg g^−1 soil h^−1
Soil D, 2.5 mol %, Day 5
  N2O production: 0.000 ± 0.000 μg g^−1 soil h^−1
Soil D, 2.5 mol %, Day 7
  N2O production: 0.037 ± 0.018 μg g^−1 soil h^−1
Soil D, 2.5 mol %, Day 14
  N2O production: 0.000 ± 0.000 μg g^−1 soil h^−1
Soil D, 2.5 mol %, Day 21
  N2O production: 0.000 ± 0.000 μg g^−1 soil h^−1
Soil D, 5 mol %, Day 1
  N2O production: 0.000 ± 0.000 μg g^−1 soil h^−1
Soil D, 5 mol %, Day 3
  N2O production: 0.027 ± 0.013 μg g^−1 soil h^−1
Soil D, 5 mol %, Day 5
  N2O production: 0.000 ± 0.000 μg g^−1 soil h^−1
Soil D, 5 mol %, Day 7
  N2O production: 0.020 ± 0.011 μg g^−1 soil h^−1
Soil D, 5 mol %, Day 14
  N2O production: 0.000 ± 0.000 μg g^−1 soil h^−1
Soil D, 5 mol %, Day 21
  N2O production: 0.000 ± 0.000 μg g^−1 soil h^−1
Soil E, 0.5 mol %, Day 1
  N2O production: 0.007 ± 0.007 μg g^−1 soil h^−1
Soil E, 0.5 mol %, Day 3
  N2O production: 0.011 ± 0.011 μg g^−1 soil h^−1
Soil E, 0.5 mol %, Day 5
  N2O production: 0.000 ± 0.000 μg g^−1 soil h^−1
Soil E, 0.5 mol %, Day 7
  N2O production: 0.000 ± 0.000 μg g^−1 soil h^−1
Soil E, 0.5 mol %, Day 14
  N2O production: 0.000 ± 0.000 μg g^−1 soil h^−1
Soil E, 0.5 mol %, Day 21
  N2O production: 0.000 ± 0.000 μg g^−1 soil h^−1
Soil E, 2.5 mol %, Day 1
  N2O production: 0.008 ± 0.008 μg g^−1 soil h^−1
Soil E, 2.5 mol %, Day 3
  N2O production: 0.008 ± 0.008 μg g^−1 soil h^−1
Soil E, 2.5 mol %, Day 5
  N2O production: 0.000 ± 0.000 μg g^−1 soil h^−1
Soil E, 2.5 mol %, Day 7
  N2O production: 0.000 ± 0.000 μg g^−1 soil h^−1
Soil E, 2.5 mol %, Day 14
  N2O production: 0.000 ± 0.000 μg g^−1 soil h^−1
Soil E, 2.5 mol %, Day 21
  N2O production: 0.000 ± 0.000 μg g^−1 soil h^−1
Soil E, 5 mol %, Day 1
  N2O production: 0.012 ± 0.012 μg g^−1 soil h^−1
Soil E, 5 mol %, Day 3
  N2O production: 0.000 ± 0.000 μg g^−1 soil h^−1
Soil E, 5 mol %, Day 5
  N2O production: 0.000 ± 0.000 μg g^−1 soil h^−1
Soil E, 5 mol %, Day 7
  N2O production: 0.000 ± 0.000 μg g^−1 soil h^−1
Soil E, 5 mol %, Day 14
  N2O production: 0.000 ± 0.000 μg g^−1 soil h^−1
Soil E, 5 mol %, Day 21
  N2O production: 0.000 ± 0.000 μg g^−1 soil h^−1
Soil B, 0.5 mol % (lowest application rate), day 1
  N2O production rate: 0.06 ng g^−1 soil h^−1
Soil B, other than day 1 at the lowest application rate, over the duration of the experiment
  amount of N2O: below the detection limit
Soil C, 0.5 mol %
  N2O relative to the amount released from the uninhibited soil: 25%
Soil C, 0.5 mol %, across the duration of the incubation
  N2O produced: about 0.12 ng h^1
Soil C, higher application rates (2.5 and 5 mol %)
  production of N2O: nearly completely suppressed
Soil D, 0.5 mol %
  slowing down of N2O production: 60%
Soil D, two higher application rates (2.5 and 5 mol %), from the start of the experiment
  N2O production rate: practically zero
Soil E, all 4-MPT treatments (0.5, 2.5, 5 mol %)
  N2O production beyond day 5: no N2O production was detected
